Tests used:
[1] = Ultraviolet absorption (450 nm) over time of buffered lysine solutions with or without malto-oligosaccharide, warmed to 75° C.; assay type: physicochemical
Method: A pH 6 buffered lysine solution was prepared by dissolving L-lysine (0.5 g) in phosphate buffer and adjusting the pH with hydrochloric acid. […] An aqueous solution of a reduced malto-oligosaccharide was prepared by dissolving a reduced malto-oligosaccharide mixture in water to produce a solution having a final solids content of 50% by weight. The buffered lysine solution (2 mL) was dissolved in the aqueous reduced malto-oligosaccharide solution (hydrogenated MALTRIN® M180) (3 mL) to produce a solution.

[2] = test system: Fleischmann's baker's yeast; test: Yeast viability before and after freeze drying (cell counting after plating on YM agar); assay type: cell-based; conditions: yeast viability of freeze dried sample divided by that of control sample
Method: Yeast viability was determined by cell counting after plating on yeast extract, malt extract (YM) agar in accordance with the method described in FDA Bacteriological Analytical Manual, 6th Ed., Ch. 4, pp. 401-402 (1984). Yeast viability is expressed as the number of cells per gram of dry solids (gm.ds). The percent yeast survival was determined by dividing the yeast viability of the freeze dried sample by the yeast viability of the control sample.
For comparison, a mixture of yeast cells and a malto-oligosaccharide was freeze dried, as follows. A 20% aqueous solution of MALTRIN® M180 (M180) was prepared by dissolving 85.5 g (6.4% moisture) of M180 in […] of deionized water. A suspension of yeast cells was prepared by dissolving 5.78 g of Fleischmann's baker's yeast in 94.3 g of sterile phosphate buffer. The yeast suspension was stirred for 30 minutes to obtain a relatively homogenous yeast mixture. A 10.0 ml aliquot of the yeast suspension was pipetted into the 20% aqueous M180 solution. A control sample was removed to determine yeast viability by plating on YM agar (sample 9A). […] After freeze drying, sample 9B was removed from the pans and analyzed for yeast viability. […]
A mixture of yeast cells and a reduced malto-oligosaccharide was freeze dried, as follows. […] After freeze drying, samples 9D-1 and 9D-2 were removed from the pans and analyzed for yeast viability. […]

[3] = test system: Enzeco® Fungal Lactase Concentrate; test: Lactase enzyme activity before and after freeze drying (glucose released from a buffered lactose solution); assay type: biochemical
Method: The enzyme activity was determined in accordance with Mazzobre et al., Biopolymer Science: Food and Non Food Applications, Montpellier (France) Sep. 28-30, 1998 Ed. INRA, Paris, 1999 (Les Colloques, no 91). The procedure is based on measuring the amount of glucose released from a buffered lactose solution. The measurement was done using a YSI 2700 glucose analyzer.
For comparison, a mixture containing lactase and a malto-oligosaccharide was prepared, as follows. A 20% aqueous solution of MALTRIN® M180 (M180) was prepared by dissolving 85.5 g (6.4% moisture) of M180 in 313.5 g of deionized water. Enzeco® Fungal Lactase Concentrate, 1.0 g was added to the slurry and stirred for one hour. A 20.0 ml aliquot of the mixture was removed as a control (sample 8A). The remaining sample was poured into two separate freeze drying pans and each was freeze dried according to the temperature profile in Table 3. The temperature profile shown in column 8B of Table 3 represents the temperature profile for only one of the two samples in the freeze drying pans. The freeze dryer was a Virtis Genesis 25XL unit. Final vacuum of the system was 11.8 mtorr. After freeze drying, the material was removed from the pans and evaluated for enzyme activity. The enzyme activity in column 8B of Table 4 represents an average of the enzyme activities for each of the two samples in the freeze drying pans.
A mixture containing lactase and a reduced malto-oligosaccharide was freeze dried as follows. A 20% aqueous solution of reduced malto-oligosaccharide with a carbohydrate profile that matches MALTRIN® M180 (H-M180) was prepared by dissolving 83.4 g (4.1% moisture) of the reduced malto-oligosaccharide in 315.6 g of deionized water. Enzeco® Fungal Lactase Concentrate (1.0 g) was added to the slurry and stirred for one hour. A 20.0 ml aliquot of the mixture was removed as a control (sample 8C). The remaining sample was poured into two separate freeze drying pans and freeze dried according to the temperature profile in Table 3 (samples 8D-1 and 8D-2). The freeze dryer was a Virtis Genesis 25XL unit. Final vacuum of the system was 11.8 mtorr. After freeze drying, the material was removed from the pans and evaluated for enzyme activity as described in the previous example.
For comparison, a mixture containing lactase and trehalose was freeze dried, as follows. A 20% aqueous solution of trehalose was prepared by dissolving 88.9 g (9.1% moisture) of trehalose in 311.0 g of deionized water. Enzeco® Fungal Lactase Concentrate, 1.0 g was added to the slurry and stirred for-one hour. A 20.0 ml aliquot of the mixture was removed as a control (sample 8E). The remaining sample was poured into two separate freeze drying pans and each was freeze dried according to the temperature profile in Table 3. The temperature profile shown in column 8F of Table 3 represents the temperature profile of only one of the two samples in the freeze drying pans. The freeze dryer was a Virtis Genesis 25XL unit. Final vacuum of the system was 11.8 mtorr. After freeze drying, the material was removed from the pans and evaluated for enzyme activity as described in the previous example. The enzyme activity in column 8F of Table 4 represents an average of the enzyme activities for each of the two samples in the freeze drying pans.
The enzymatic activities shown in Table 4 are expressed as the percentage of glucose liberated in the enzyme assay as measured by the amount of glucose liberated divided by the maximum amount of glucose that can be theoretically liberated.

For `NCCCC[C@H](N)C(=O)O` [Control (lysine only), L-lysine], the “UV absorption (450 nm)” value ([1]; time 0 min) was 0.044, the “UV absorption (450 nm)” value ([1]; time 20 min) was 0.043 and the “UV absorption (450 nm)” value ([1]; time 35 min) was 0.044. The “UV absorption (450 nm)” value ([1]; time 50 min) was 0.046, the “UV absorption (450 nm)” value ([1]; time 65 min) was 0.047 and the “UV absorption (450 nm)” value ([1]; time 80 min) was 0.048. For the same compound, the “UV absorption (450 nm)” value ([1]; time 100 min) was 0.050, the “UV absorption (450 nm)” value ([1]; time 110 min) was 0.050 and the “UV absorption (450 nm)” value ([1]; time 125 min) was 0.051. The “UV absorption (450 nm)” value ([1]; time 170 min) was 0.055, the “UV absorption (450 nm)” value ([1]; time 185 min) was 0.057 and the “UV absorption (450 nm)” value ([1]; time 200 min) was 0.057. For the same compound, the “UV absorption (450 nm)” value ([1]; time 215 min) was 0.059, the “UV absorption (450 nm)” value ([1]; time 230 min) was 0.059 and the “UV absorption (450 nm)” value ([1]; time 245 min) was 0.058. The “UV absorption (450 nm)” value ([1]; time 260 min) was 0.061, the “UV absorption (450 nm)” value ([1]; time 305 min) was 0.061 and the “UV absorption (450 nm)” value ([1]; time 320 min) was 0.063. The “UV absorption (450 nm)” value ([1]; time 335 min) was 0.063, the “UV absorption (450 nm)” value ([1]; time 350 min) was 0.063 and the “UV absorption (450 nm)” value ([1]; time 365 min) was 0.064. The “UV absorption (450 nm)” value ([1]; time 380 min) was 0.065.
With `OC[C@H]1O[C@H](O[C@H]2O[C@H](CO)[C@@H](O)[C@H](O)[C@H]2O)[C@H](O)[C@@H](O)[C@@H]1O` [Trehalose, trehalose] the “% Yeast Survival” value [2] was 58.0 (trehalase) %, the “% activity (freeze dried sample divided by control sample not freeze dried)” value ([3]; Avg. over assay times) was 86.6% and the “% activity (freeze dried sample divided by control sample not freeze dried)” value ([3]; lactase assay time 0 h) was 0%. For the same compound, the “% activity (freeze dried sample divided by control sample not freeze dried)” value ([3]; lactase assay time 0.05 h) was 72.4%, the “% activity (freeze dried sample divided by control sample not freeze dried)” value ([3]; lactase assay time 0.5 h) was 90.0% and the “% activity (freeze dried sample divided by control sample not freeze dried)” value ([3]; lactase assay time 1 h) was 90.7%. For the same compound, the “% activity (freeze dried sample divided by control sample not freeze dried)” value ([3]; lactase assay time 2 h) was 93.2%.
